Data reported in EP3504969B1, “COMPOSITION FOR CONTROLLING FUNGAL INFECTION CAUSED BYNOSEMA CERANAE” (Universidad De Chile, priority 2015, dated 2017).

Key:
Nosema ceranae [1] = details: laboratory studies; result in words; cited from earlier work
Nosema ceranae [2] = experiment: Confirmation efficacy test (Marchámalo): spore reduction in infected bees, days 5, 6 and 7; type: in vivo, Apis mellifera; details: day 7; CD14 daily dose 4 µg/bee; fumagillin 240 µg/bee; p = 0.0001
Protocol: The AEselec in the previous paragraph (selected for its higher efficacy and higher yield) was assayed to confirm its activity against nosemosis using standardized tests in the Pathology Laboratory of the Centro Agrario de Marchámalo, Spain. Consequently, 3 groups of treatments were used, comprising 3 cages each and 35 bees/cage, born in laboratory, which, after a waiting period of 7 days, were infected with a load of 5 × 10^4 spores per bee. Later, a waiting period of 5 days passed to begin the application of the treatment in the ad libitum feeding. (Higes, 2007; Higes et al., 2010): • 1. Group without infection, negative control (Nl) • 2. Group infected with Nosema spp. spores, untreated positive control to which only 50% sucrose syrup with a 2% L-promoter (IST) shall be given, • 3. Group infected with Nosema spp. spores treated with peumo AE (ICT).
Spores. […] Both environmental variables were monitored through the installation of an environmental thermohygrometer. […]
Figure 6. Effectiveness of CD14 indicated as a percentage of spore reduction on days 5, 6 and 7 days of treatment at a daily dose of CD14, of 4µg/bee and 20 µg/bee of the majority of the evaluated monoterpenes. […]

SMILES	reducing the spore load of Nosema ceranae (Nosema ceranae [1])	inhibited the growth of N. ceranae spores (Nosema ceranae [2])
Oc1ccc(C=Cc2cc(O)cc(O)c2)cc1 [resveratrol]	significant effects	–
CO[C@@H]1[C@H](OC(=O)/C=C/C=C/C=C/C=C/C(=O)O)CC[C@]2(CO2)[C@H]1[C@@]1(C)O[C@@H]1CC=C(C)C [fumagillin]	–	about 80%
Cc1ccc(C(C)C)c(O)c1 [thymol]	significant effects	–
